The supplement of paper PMC6045584
± gives the standard deviation of the averaged measurements.

Experiments:
[1] = compound: T1, C=CC(=O)Nc1cc2c(Nc3ccc(F)c(Cl)c3)ncnc2cc1OCCCN1CCOCC1 [CANERTINIB]; experiment: area under dose-response curve of surviving fraction (unscaled, Aref=0) (surviving fraction x log10(nM)); higher = more resistant; settings: exposure time: 5 days; dose range 0.5-1000 nM
Summary of the method: (§1)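 Three screens per tumour cell line were run in 384-well plates at eight inhibitor concentrations from 0.5 to 1000 nM over five days. Surviving fractions, from CellTiter-Glo luminescence normalised to DMSO-only wells, were fitted with 3-parameter logistic curves in the drc R package. The reported area under the curve is the unscaled activity area. It spans log10 dose, and Aref is 0.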

[2] = compound: Cn1cc(C2=Nc3cc(NC(=O)C(N)C4CCCCC4)cc4c3C2=CNNC4=O)cn1; experiment: as above; settings: exposure time: 5 days; dose range 0.5-1000 nM
Summary of the method: as §1

[3] = compound: T2, CC[C@@H]1C(=O)N(C)c2cnc(Nc3ccc(C(=O)NC4CCN(C)CC4)cc3OC)nc2N1C1CCCC1 [BI-2536]; experiment: as above; settings: exposure time: 5 days; dose range 0.5-1000 nM
Summary of the method: as §1

[4] = compound: T3, CC1(C)CC(=O)c2c(C(F)(F)F)nn(-c3ccc(C(N)=O)c(N[C@H]4CC[C@H](OC(=O)CN)CC4)c3)c2C1 [SNX-5422]; experiment: as above; settings: exposure time: 5 days; dose range 0.5-1000 nM
Summary of the method: as §1

[5] = compound: T4, CN(C)C/C=C/C(=O)Nc1cc2c(Nc3ccc(F)c(Cl)c3)ncnc2cc1O[C@H]1CCOC1 [AFATINIB]; experiment: as above; settings: exposure time: 5 days; dose range 0.5-1000 nM
Summary of the method: as §1

[6] = compound: T5, CCCCCCCCCCCCCCCC(=O)Nc1ccn([C@@H]2O[C@H](CO)[C@@H](O)[C@@H]2C#N)c(=O)n1 [SAPACITABINE]; experiment: as above; settings: exposure time: 5 days; dose range 0.5-1000 nM
Summary of the method: as §1

[7] = compound: T6, CNC(=O)c1ccc(N2C(=S)N(c3ccc(C#N)c(C(F)(F)F)c3)C(=O)C2(C)C)cc1F [MDV3100]; experiment: as above; settings: exposure time: 5 days; dose range 0.5-1000 nM
Summary of the method: as §1

[8] = compound: T7, Nc1nc2[nH]cnc2c(=S)[nH]1 [TIOGUANINE]; experiment: as above; settings: exposure time: 5 days; dose range 0.5-1000 nM
Summary of the method: as §1

[9] = compound: T1, CANERTINIB; experiment: surviving fraction relative to DMSO-only wells; higher = less growth inhibition; settings: exposure time: 5 days
Summary of the method: (§2)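 A line counted only if its three screens reached replicate Pearson r >0.7 and median Z' >0.3. Tumour cells in log phase were seeded at 250–500 per well in 384-well plates and, after 24 hours, kept in continuous contact with inhibitors at 0.5, 1, 5, 10, 50, 100, 500 and 1000 nM for five days. Surviving fraction was taken from CellTiter-Glo luminescence relative to the median of DMSO-only wells.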

[10] = compound: Cn1cc(C2=Nc3cc(NC(=O)C(N)C4CCCCC4)cc4c3C2=CNNC4=O)cn1; experiment: as above; settings: exposure time: 5 days
Summary of the method: as §2

[11] = compound: T2, BI-2536; experiment: as above; settings: exposure time: 5 days
Summary of the method: as §2

[12] = compound: T3, SNX-5422; experiment: as above; settings: exposure time: 5 days
Summary of the method: as §2

[13] = compound: T4, AFATINIB; experiment: as above; settings: exposure time: 5 days
Summary of the method: as §2

[14] = compound: T5, SAPACITABINE; experiment: as above; settings: exposure time: 5 days
Summary of the method: as §2

[15] = compound: T6, MDV3100; experiment: as above; settings: exposure time: 5 days
Summary of the method: as §2

[16] = compound: T7, TIOGUANINE; experiment: as above; settings: exposure time: 5 days
Summary of the method: as §2

CHLA90 AUTONOMIC GANGLIA was tested. Which “area under dose-response curve” value [1] did it give?
Its value is 2.51.

And the “area under dose-response curve” value [2]?
The value was 2.37.

And the “area under dose-response curve” value [3]?
The value was 1.2.

What about the “area under dose-response curve” value [4] of the same test system?
The value was 2.04.

What about the “area under dose-response curve” value [5] of the same test system?
Its value is 2.76.

What about the “area under dose-response curve” value [6] of the same test system?
The value was 2.09.

And the “area under dose-response curve” value [7]?
Its value is 2.67.

What about the “area under dose-response curve” value [8] of the same test system?
The value was 3.12.

And the surviving fraction ([9]; 0.5 nM)?
Its surviving fraction is 0.869 ± 0.021.

What about the surviving fraction ([9]; 1 nM) of the same test system?
The surviving fraction was 0.876 ± 0.083.

And the surviving fraction ([9]; 5 nM)?
Its surviving fraction is 0.744 ± 0.072.

What about the surviving fraction ([9]; 10 nM) of the same test system?
Its surviving fraction is 0.704 ± 0.03.

What about the surviving fraction ([9]; 50 nM) of the same test system?
The surviving fraction was 0.812 ± 0.08.

What about the surviving fraction ([9]; 100 nM) of the same test system?
The surviving fraction was 0.761 ± 0.057.

And the surviving fraction ([9]; 500 nM)?
Its surviving fraction is 0.684 ± 0.045.

And the surviving fraction ([9]; 1000 nM)?
Its surviving fraction is 0.643 ± 0.062.

What about the surviving fraction ([10]; 0.5 nM) of the same test system?
The surviving fraction was 1.01 ± 0.025.

What about the surviving fraction ([10]; 1 nM) of the same test system?
Its surviving fraction is 1.07 ± 0.07.

And the surviving fraction ([10]; 5 nM)?
The surviving fraction was 0.956 ± 0.057.

And the surviving fraction ([10]; 10 nM)?
Its surviving fraction is 0.992 ± 0.023.

What about the surviving fraction ([10]; 50 nM) of the same test system?
Its surviving fraction is 0.772 ± 0.03.

What about the surviving fraction ([10]; 100 nM) of the same test system?
The surviving fraction was 0.557 ± 0.04.

What about the surviving fraction ([10]; 500 nM) of the same test system?
The surviving fraction was 0.101 ± 0.0068.

What about the surviving fraction ([10]; 1000 nM) of the same test system?
The surviving fraction was 0.0843 ± 0.011.

And the surviving fraction ([11]; 0.5 nM)?
The surviving fraction was 1.07 ± 0.045.

What about the surviving fraction ([11]; 1 nM) of the same test system?
The surviving fraction was 0.978 ± 0.062.

What about the surviving fraction ([11]; 5 nM) of the same test system?
Its surviving fraction is 0.408 ± 0.032.

And the surviving fraction ([11]; 10 nM)?
Its surviving fraction is 0.203 ± 0.01.

What about the surviving fraction ([11]; 50 nM) of the same test system?
Its surviving fraction is 0.167 ± 0.027.

What about the surviving fraction ([11]; 100 nM) of the same test system?
Its surviving fraction is 0.135 ± 0.015.

What about the surviving fraction ([11]; 500 nM) of the same test system?
The surviving fraction was 0.132 ± 0.0078.

What about the surviving fraction ([11]; 1000 nM) of the same test system?
Its surviving fraction is 0.0863 ± 0.0025.

And the surviving fraction ([12]; 0.5 nM)?
The surviving fraction was 0.995 ± 0.028.

And the surviving fraction ([12]; 1 nM)?
Its surviving fraction is 1.07 ± 0.075.

And the surviving fraction ([12]; 5 nM)?
The surviving fraction was 1.04 ± 0.041.

What about the surviving fraction ([12]; 10 nM) of the same test system?
The surviving fraction was 1.026 ± 0.0046.

What about the surviving fraction ([12]; 50 nM) of the same test system?
The surviving fraction was 0.251 ± 0.028.

What about the surviving fraction ([12]; 100 nM) of the same test system?
The surviving fraction was 0.227 ± 0.029.

What about the surviving fraction ([12]; 500 nM) of the same test system?
Its surviving fraction is 0.129 ± 0.0096.

What about the surviving fraction ([12]; 1000 nM) of the same test system?
Its surviving fraction is 0.141 ± 0.0081.

What about the surviving fraction ([13]; 0.5 nM) of the same test system?
Its surviving fraction is 0.991 ± 0.042.

What about the surviving fraction ([13]; 1 nM) of the same test system?
The surviving fraction was 0.981 ± 0.056.

What about the surviving fraction ([13]; 5 nM) of the same test system?
Its surviving fraction is 0.839 ± 0.063.

What about the surviving fraction ([13]; 10 nM) of the same test system?
The surviving fraction was 0.849 ± 0.077.

And the surviving fraction ([13]; 50 nM)?
Its surviving fraction is 0.819 ± 0.017.

What about the surviving fraction ([13]; 100 nM) of the same test system?
The surviving fraction was 0.796 ± 0.052.

What about the surviving fraction ([13]; 500 nM) of the same test system?
The surviving fraction was 0.775 ± 0.051.

And the surviving fraction ([13]; 1000 nM)?
The surviving fraction was 0.593 ± 0.036.

And the surviving fraction ([14]; 0.5 nM)?
The surviving fraction was 0.843 ± 0.099.

And the surviving fraction ([14]; 1 nM)?
Its surviving fraction is 0.692 ± 0.038.

What about the surviving fraction ([14]; 5 nM) of the same test system?
The surviving fraction was 0.797 ± 0.052.

What about the surviving fraction ([14]; 10 nM) of the same test system?
The surviving fraction was 0.235 ± 0.019.

What about the surviving fraction ([14]; 50 nM) of the same test system?
Its surviving fraction is 0.889 ± 0.092.

What about the surviving fraction ([14]; 100 nM) of the same test system?
The surviving fraction was 0.755 ± 0.057.

And the surviving fraction ([14]; 500 nM)?
The surviving fraction was 0.641 ± 0.042.

What about the surviving fraction ([14]; 1000 nM) of the same test system?
Its surviving fraction is 0.212 ± 0.038.

What about the surviving fraction ([15]; 0.5 nM) of the same test system?
Its surviving fraction is 0.946 ± 0.11.

And the surviving fraction ([15]; 1 nM)?
The surviving fraction was 0.812 ± 0.07.

What about the surviving fraction ([15]; 5 nM) of the same test system?
Its surviving fraction is 0.878 ± 0.077.

And the surviving fraction ([15]; 10 nM)?
The surviving fraction was 0.362 ± 0.028.

And the surviving fraction ([15]; 50 nM)?
The surviving fraction was 1 ± 0.078.

And the surviving fraction ([15]; 100 nM)?
Its surviving fraction is 0.94 ± 0.12.

What about the surviving fraction ([15]; 500 nM) of the same test system?
The surviving fraction was 1 ± 0.076.

What about the surviving fraction ([15]; 1000 nM) of the same test system?
Its surviving fraction is 0.625 ± 0.14.

What about the surviving fraction ([16]; 0.5 nM) of the same test system?
Its surviving fraction is 0.95 ± 0.029.

And the surviving fraction ([16]; 1 nM)?
The surviving fraction was 0.99 ± 0.04.

What about the surviving fraction ([16]; 5 nM) of the same test system?
Its surviving fraction is 1 ± 0.038.

What about the surviving fraction ([16]; 10 nM) of the same test system?
Its surviving fraction is 0.948 ± 0.034.

And the surviving fraction ([16]; 50 nM)?
The surviving fraction was 0.96 ± 0.043.

And the surviving fraction ([16]; 100 nM)?
Its surviving fraction is 0.913 ± 0.08.

And the surviving fraction ([16]; 500 nM)?
The surviving fraction was 0.88 ± 0.057.

What about the surviving fraction ([16]; 1000 nM) of the same test system?
Its surviving fraction is 0.912 ± 0.048.
